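Tested at 5 concentrations; 48 h exposure; 96-well plates; endpoints linearly interpolated, else capped at highest concentration. At the GI50, growth is halved.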 Active and inactive are the calls of the source. Rule as the data show it: active = GI50 up to about 1.1 µM and inactive = higher.
Experiments:
Experiment in all cases: inhibition of tumour cell growth, NCI panel, 48 h
A498 = system: A498
A549 = system: A549
CAKI-1 = system: CAKI-1
CCRF-CEM = system: CCRF-CEM
COLO 205 = system: COLO 205
DLD-1 = system: DLD-1
DMS-114 = system: DMS-114
DMS-273 = system: DMS-273
EKVX = system: EKVX
HCC 2998 = system: HCC 2998
HCT-116 = system: HCT-116
HCT-15 = system: HCT-15
HL-60 = system: HL-60
HOP-18 = system: HOP-18
HOP-62 = system: HOP-62
HOP-92 = system: HOP-92
HT-29 = system: HT-29
IGROV-1 = system: IGROV-1
K562 = system: K562
KM-20L2 = system: KM-20L2
KM12 = system: KM12
M19-MEL = system: M19-MEL
MCF7 = system: MCF7
MOLT-4 = system: MOLT-4
Malme-3M = system: Malme-3M
NCI-H226 = system: NCI-H226
NCI-H23 = system: NCI-H23
NCI-H460 = system: NCI-H460
NCI-H522 = system: NCI-H522
NCI/ADR-RES = system: NCI/ADR-RES
OVCAR-3 = system: OVCAR-3
OVCAR-4 = system: OVCAR-4
OVCAR-5 = system: OVCAR-5
OVCAR-8 = system: OVCAR-8
RPMI-8226 = system: RPMI-8226
RXF 393 = system: RXF 393
SF-268 = system: SF-268
SF-539 = system: SF-539
SK-MEL-28 = system: SK-MEL-28
SK-MEL-2 = system: SK-MEL-2
SK-MEL-5 = system: SK-MEL-5
SK-OV-3 = system: SK-OV-3
SN12C = system: SN12C
SNB-19 = system: SNB-19
SNB-75 = system: SNB-75
SNB-78 = system: SNB-78
SW-620 = system: SW-620
U-251 = system: U-251
UACC-257 = system: UACC-257
UACC-62 = system: UACC-62
UO-31 = system: UO-31
XF498 = system: XF498
786-0 = system: 786-0
ACHN = system: ACHN
LOX IMVI = system: LOX IMVI
LXFL 529 = system: LXFL 529
M14 = system: M14
SF-295 = system: SF-295
SR = system: SR
TK-10 = system: TK-10

In the case of `CCOC(=O)CN1CCS/C1=N/C#N`, the GI50 (A498) is reported as > 100 µM (inactive), the GI50 (A549) is reported as > 100 µM (inactive) and the GI50 (CAKI-1) is reported as > 100 µM (inactive). The GI50 (CCRF-CEM) was > 100 µM (inactive), the GI50 (COLO 205) was > 100 µM (inactive) and the GI50 (DLD-1) was > 100 µM (inactive). The GI50 (DMS-114) was > 100 µM (inactive), the GI50 (DMS-273) was > 100 µM (inactive) and the GI50 (EKVX) was > 100 µM (inactive). The GI50 (HCC 2998) was > 100 µM (inactive), the GI50 (HCT-116) was > 100 µM (inactive) and the GI50 (HCT-15) was greater than 100 µM. The GI50 (HL-60) was > 100 µM (inactive), the GI50 (HOP-18) was > 100 µM (inactive) and the GI50 (HOP-62) was > 100 µM (inactive). For the same molecule, the GI50 (HOP-92) was > 60 µM (inactive), the GI50 (HT-29) was > 42.4 µM (inactive) and the GI50 (IGROV-1) was > 100 µM (inactive). For the same molecule, the GI50 (K562) was > 100 µM (inactive), the GI50 (KM-20L2) was > 100 µM (inactive) and the GI50 (KM12) was > 100 µM (inactive). For the same molecule, the GI50 (M19-MEL) was > 100 µM (inactive), the GI50 (MCF7) was > 100 µM (inactive) and the GI50 (MOLT-4) was > 100 µM (inactive). For the same molecule, the GI50 (Malme-3M) was > 100 µM (inactive), the GI50 (NCI-H226) was > 100 µM (inactive) and the GI50 (NCI-H23) was > 87.5 µM (inactive). For the same molecule, the GI50 (NCI-H460) was > 31.6 µM (inactive), the GI50 (NCI-H522) was > 100 µM (inactive) and the GI50 (NCI/ADR-RES) was > 100 µM (inactive). The GI50 (OVCAR-3) was > 100 µM (inactive), the GI50 (OVCAR-4) was > 100 µM (inactive) and the GI50 (OVCAR-5) was 4.22 µM (inactive). For the same molecule, the GI50 (OVCAR-8) was > 100 µM (inactive), the GI50 (RPMI-8226) was > 100 µM (inactive) and the GI50 (RXF 393) was > 100 µM (inactive). The GI50 (SF-268) was > 100 µM (inactive), the GI50 (SF-539) was > 100 µM (inactive) and the GI50 (SK-MEL-28) was > 100 µM (inactive). For the same molecule, the GI50 (SK-MEL-2) was > 100 µM (inactive), the GI50 (SK-MEL-5) was > 100 µM (inactive) and the GI50 (SK-OV-3) was > 100 µM (inactive). For the same molecule, the GI50 (SN12C) was > 100 µM (inactive), the GI50 (SNB-19) was > 100 µM (inactive) and the GI50 (SNB-75) was > 100 µM (inactive). The GI50 (SNB-78) was > 100 µM (inactive), the GI50 (SW-620) was > 100 µM (inactive) and the GI50 (U-251) was > 100 µM (inactive). The GI50 (UACC-257) was > 100 µM (inactive), the GI50 (UACC-62) was > 100 µM (inactive) and the GI50 (UO-31) was > 100 µM (inactive). For the same molecule, the GI50 (XF498) was > 100 µM (inactive).
In the case of `CCN(CC)CC(C)C(=O)/C=C/c1ccc(C)cc1` (stereo not drawn), the GI50 (786-0) is reported as 1.88 µM (inactive), the GI50 (A498) is reported as 4.74 µM (inactive) and the GI50 (A549) is reported as 3.77 µM (inactive). The GI50 (ACHN) was 2.06 µM (inactive), the GI50 (CAKI-1) was 1.22 µM (inactive) and the GI50 (CCRF-CEM) was 3.05 µM (inactive). For the same molecule, the GI50 (COLO 205) was 1.55 µM (inactive), the GI50 (DLD-1) was 1.67 µM (inactive) and the GI50 (DMS-114) was 1.77 µM (inactive). The GI50 (DMS-273) was 2.23 µM (inactive), the GI50 (EKVX) was 13.8 µM (inactive) and the GI50 (HCC 2998) was 3.13 µM (inactive). The GI50 (HCT-116) was 1.73 µM (inactive), the GI50 (HCT-15) was 2.53 µM and the GI50 (HL-60) was 3.48 µM (inactive). The GI50 (HOP-18) was 10.5 µM (inactive), the GI50 (HOP-62) was 18.4 µM (inactive) and the GI50 (HOP-92) was 2.32 µM (inactive). For the same molecule, the GI50 (HT-29) was 1.85 µM (inactive), the GI50 (IGROV-1) was 2.2 µM (inactive) and the GI50 (K562) was 3.24 µM (inactive). For the same molecule, the GI50 (KM-20L2) was 10 µM (inactive), the GI50 (KM12) was 0.502 µM (active) and the GI50 (LOX IMVI) was 1.29 µM (inactive). The GI50 (LXFL 529) was 1.76 µM (inactive), the GI50 (M14) was 2.2 µM (inactive) and the GI50 (M19-MEL) was 1.67 µM (inactive). The GI50 (MOLT-4) was 2.52 µM (inactive), the GI50 (Malme-3M) was 2.81 µM (inactive) and the GI50 (NCI-H226) was 16.6 µM (inactive). The GI50 (NCI-H23) was 6.31 µM (inactive), the GI50 (NCI-H460) was 4.83 µM (inactive) and the GI50 (OVCAR-3) was 4.2 µM (inactive). For the same molecule, the GI50 (OVCAR-4) was 2.23 µM (inactive), the GI50 (OVCAR-5) was 14.8 µM (inactive) and the GI50 (OVCAR-8) was 2.07 µM (inactive). The GI50 (RPMI-8226) was 1.64 µM (inactive), the GI50 (RXF 393) was 2.19 µM (inactive) and the GI50 (SF-268) was 2.1 µM (inactive). The GI50 (SF-295) was 15 µM (inactive), the GI50 (SF-539) was 2.05 µM (inactive) and the GI50 (SK-MEL-28) was 1.85 µM (inactive). The GI50 (SK-MEL-5) was 5.02 µM (inactive), the GI50 (SK-OV-3) was 17 µM (inactive) and the GI50 (SN12C) was 1.63 µM (inactive). The GI50 (SNB-19) was 16.7 µM (inactive), the GI50 (SNB-75) was 1.66 µM (inactive) and the GI50 (SNB-78) was 4.59 µM (inactive). The GI50 (SR) was 2.48 µM (inactive), the GI50 (SW-620) was 1.57 µM (inactive) and the GI50 (TK-10) was 2.03 µM (inactive). For the same molecule, the GI50 (U-251) was 1.76 µM (inactive), the GI50 (UACC-257) was 2.23 µM (inactive) and the GI50 (UACC-62) was 3.3 µM (inactive). The GI50 (UO-31) was 13.5 µM (inactive) and the GI50 (XF498) was 1.54 µM (inactive).

— ChEMBL document CHEMBL1201862, “PubChem BioAssay data set” (2004)
